Data published in the supplement of paper PMC4862054.

Legend:
Assay in all cases: normalised viability (% of control), CellTiter-Blue; higher = more viable cells (about 100 = DMSO control)
Conditions in all cases: incubation time: 72 h
CAL-148 = system: CAL-148
Method in brief: (§1)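 Plates were quality-checked by Z'-factor and normalised to vehicle (100) and a positive kill control (0). The underlying assay incubated breast cancer cell lines for 72 h on 384-well plates with compound, then added 2.5 µl CellTiter-Blue for 2 h at 37 °C and read at 560/590 nm. The value is normalised viability at a single listed concentration of the series.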

MDA-MB-436 = system: MDA-MB-436
Method in brief: as §1

MDA-MB-453 = system: MDA-MB-453
Method in brief: as §1

HDQ-P1 = system: HDQ-P1
Method in brief: as §1

HCC1599 = system: HCC1599
Method in brief: as §1

Hs578T = system: Hs578T
Method in brief: as §1

HCC1937 = system: HCC1937
Method in brief: as §1

DU-4475 = system: DU-4475
Method in brief: as §1

BT-549 = system: BT-549
Method in brief: as §1

MDA-MB-468 = system: MDA-MB-468
Method in brief: as §1

SK-BR-3 = system: SK-BR-3
Method in brief: as §1

HCC1143 = system: HCC1143
Method in brief: as §1

CAL-85-1 = system: CAL-85-1
Method in brief: as §1

CAL-51 = system: CAL-51
Method in brief: as §1

MFM-223 = system: MFM-223
Method in brief: as §1

S=P(N1CC1)(N1CC1)N1CC1 [Thio-TEPA]
normalised viability [%]
Conditions	30 nM	100 nM	300 nM	1000 nM	10000 nM	100000 nM
BT-549	–	95.2	–	–	119	116
CAL-51	95.4	–	97.1	97.4	–	–
CAL-85-1	99.9	–	96.4	102	–	–
CAL-148	93.8	–	92.7	105	–	–
DU-4475	97.2	–	98.7	91.8	–	–
HCC1143	–	109	–	–	95.9	81.7
HCC1599	–	97.8	–	–	82.7	94.7
HCC1937	–	102	–	–	93.4	83.6
HDQ-P1	111	–	115	104	–	–
Hs578T	–	115	–	–	95.6	109
MDA-MB-436	–	110	–	–	87.7	123
MDA-MB-453	111	–	113	104	–	–
MDA-MB-468	–	104	–	–	107	95.3
MFM-223	–	105	–	–	106	104
SK-BR-3	–	102	–	–	99.3	97.1

Nc1cc(C(F)(F)F)c(-c2cc(N3CCOCC3)nc(N3CCOCC3)n2)cn1 [BKM-120]
normalised viability [%]
Conditions	3 nM	10 nM	30 nM	100 nM	1000 nM	10000 nM
BT-549	–	78.3	–	–	62.5	10.8
CAL-51	100	–	92.1	84.3	–	–
CAL-85-1	95.8	–	80.2	92	–	–
CAL-148	94.3	–	104	98.7	–	–
DU-4475	104	–	93.3	101	–	–
HCC1143	–	81.4	–	–	72.8	20.8
HCC1599	–	92.8	–	–	63.6	32.7
HCC1937	–	121	–	–	87.9	13.7
HDQ-P1	97.8	–	107	97.7	–	–
Hs578T	–	114	–	–	88.7	9.62
MDA-MB-436	–	82.4	–	–	93.8	16.5
MDA-MB-453	111	–	114	96.7	–	–
MDA-MB-468	–	97.7	–	–	78.7	15.3
MFM-223	–	92.2	–	–	60.2	14.5
SK-BR-3	–	101	–	–	24.4	9.47

Cc1cc(Nc2cc(CN3CCOCC3)c3nc(C)c(Cc4ccc(Cl)cc4F)n3n2)n[nH]1
normalised viability [%]
Conditions	3 nM	10 nM	30 nM	100 nM	1000 nM	10000 nM
BT-549	–	97.8	–	–	78.8	9.99
CAL-51	97.1	–	95.2	94.2	–	–
CAL-85-1	87.2	–	83.3	93.1	–	–
CAL-148	84.1	–	87.7	88.2	–	–
DU-4475	110	–	94.7	122	–	–
HCC1143	–	78.1	–	–	58.9	35.5
HCC1599	–	109	–	–	90.5	92
HCC1937	–	80.4	–	–	64.7	44
HDQ-P1	89.9	–	82	82.4	–	–
Hs578T	–	110	–	–	81.6	2.66
MDA-MB-436	–	109	–	–	71.1	36.8
MDA-MB-453	90.4	–	101	82.8	–	–
MDA-MB-468	–	103	–	–	61.4	7.11
MFM-223	–	102	–	–	50.6	44.8
SK-BR-3	–	102	–	–	70.9	30.5

CN(C)c1nc(N(C)C)nc(N(C)C)n1 [Altretamine]
normalised viability [%]
Conditions	3 nM	10 nM	30 nM	100 nM	1000 nM	10000 nM
BT-549	–	89.3	–	–	78.4	93.4
CAL-51	113	–	108	105	–	–
CAL-85-1	105	–	91.5	119	–	–
CAL-148	99.5	–	96.7	104	–	–
DU-4475	94.6	–	83.6	105	–	–
HCC1143	–	74.7	–	–	88.4	91.2
HCC1599	–	95.7	–	–	98.2	73.5
HCC1937	–	100	–	–	96.3	88.6
HDQ-P1	107	–	92.7	112	–	–
Hs578T	–	107	–	–	96.9	102
MDA-MB-436	–	102	–	–	99.5	85.5
MDA-MB-453	119	–	99.5	97.4	–	–
MDA-MB-468	–	94.5	–	–	104	103
MFM-223	–	96.2	–	–	98	89.6
SK-BR-3	–	106	–	–	113	100

O=C(Nc1ccncc1)C(=O)c1cn(Cc2ccc(Cl)cc2)c2ccccc12 [Indibulin]
normalised viability [%]
Conditions	3 nM	10 nM	30 nM	100 nM	1000 nM	10000 nM
BT-549	–	103	–	–	31.4	23.5
CAL-51	106	–	104	102	–	–
CAL-85-1	102	–	91.3	95	–	–
CAL-148	95.4	–	92.1	94.5	–	–
DU-4475	111	–	93.7	123	–	–
HCC1143	–	80.7	–	–	41.1	41
HCC1599	–	113	–	–	124	103
HCC1937	–	74.5	–	–	21.1	23.1
HDQ-P1	90.5	–	87.7	74.8	–	–
Hs578T	–	110	–	–	56.3	18.5
MDA-MB-436	–	111	–	–	41.4	66.3
MDA-MB-453	97.2	–	61.7	65.5	–	–
MDA-MB-468	–	95.7	–	–	49.8	36.7
MFM-223	–	112	–	–	63.7	68.5
SK-BR-3	–	94.5	–	–	19.9	20.6

N#Cc1ccc(COC[C@H]2O[C@@H](n3c(NCc4ccc(Cl)c(Cl)c4)nc4c(N)ncnc43)[C@H](O)[C@@H]2O)cc1
normalised viability [%]
Conditions	3 nM	10 nM	30 nM	100 nM	1000 nM	10000 nM
BT-549	–	87.7	–	–	84	34.4
CAL-51	118	–	110	110	–	–
CAL-85-1	108	–	107	110	–	–
CAL-148	101	–	105	99.3	–	–
DU-4475	97.8	–	88.7	113	–	–
HCC1143	–	90.1	–	–	87.4	60.8
HCC1599	–	97.3	–	–	65.6	22
HCC1937	–	135	–	–	78.5	71.8
HDQ-P1	115	–	104	105	–	–
Hs578T	–	104	–	–	99.3	73.8
MDA-MB-436	–	95.2	–	–	84.8	50.9
MDA-MB-453	124	–	95.7	91.4	–	–
MDA-MB-468	–	108	–	–	89.7	68.7
MFM-223	–	93	–	–	101	93.6
SK-BR-3	–	115	–	–	102	37.3
